Experimental data reported in US20250144067A1, “PERSONALIZED STARVATION THERAPY FOR CANCER” (Faeth Therapeutics, Inc., priority 2021, published 2025).
Where a name gives a salt, the structure may show the parent alone. Read-outs that look alike come from different tables or passages of the source.

Columns and labels:
[1] = test system: NCI-H292 lung cancer cells; experiment: FDA drug screening, complete media vs cholesterol-free media with simvastatin (TABLE 2); assay type: cell-based, human
[2] = test system: NCI-H292 lung cancer cells; experiment: FDA drug screening, complete media vs cholesterol-free media without statin (TABLE 1); assay type: cell-based, human
[3] = NCI-H292 cells, cholesterol-free media with simvastatin 0.04 μM, FDA drug library screen (TABLE 2)
[4] = NCI-H292 cells, complete media, FDA drug library screen (TABLE 2)
[5] = complete media minus cholesterol-free media + simvastatin (0.04 μM), >0 enhanced anti-cancer activity, about 0 neutral, <0 antagonist
[6] = Complete minus Cholesterol-free, greater than 0 enhanced anti-cancer activity, about 0 neutral, below 0 antagonist
[7] = NCI-H292 cells, FDA drug library screen, cholesterol-free media without statin
[8] = NCI-H292 cells, FDA drug library screen, complete media
[9] = NCI-H292 cells, FDA drug library screen, cholesterol-free media with simvastatin 0.04 μM
[10] = complete media minus cholesterol-free media + simvastatin, >0 enhanced anti-cancer activity, about 0 neutral, <0 antagonist
[11] = NCI-H292 cells, cholesterol-free media without statin, FDA drug library screen
[12] = NCI-H292 cells, complete media, FDA drug library screen
[13] = complete vs cholesterol-free media, >0 enhanced anti-cancer activity, about 0 neutral, <0 antagonist
[14] = NCI-H292 cells, FDA library drug in cholesterol-free media with simvastatin 0.04 μM
[15] = NCI-H292 cells, FDA library drug in complete media
[16] = complete media vs cholesterol-free media + simvastatin (0.04 μM), >0 enhanced anti-cancer activity, about 0 neutral, <0 antagonist
[17] = NCI-H292 cells, cholesterol-free media with simvastatin 0.04 μM, cell growth value in FDA drug screen
[18] = NCI-H292 cells, complete media, cell growth value in FDA drug screen
[19] = complete media minus cholesterol-free media + simvastatin, […]
[20] = Complete minus Cholesterol-free, […]
[21] = NCI-H292 cells, drug in cholesterol-free media with simvastatin 0.04 μM
[22] = NCI-H292 cells, drug in complete media
[23] = complete media vs cholesterol-free media + simvastatin (0.04 μM), […]
[24] = NCI-H292 cells, cholesterol-free media without statin
[25] = Complete minus Cholesterol-free, >0 enhanced anti-cancer activity, about 0 neutral, <0 antagonist
[26] = Complete minus Cholesterol-free, greater than 0 enhanced anti-cancer activity, about 0 neutral, below 0 antagonists
[27] = NCI-H292 cells in cholesterol-free media without statin
[28] = NCI-H292 cells in complete media

## CC1=NN(c2ccccc2)C(=O)C1 [Edaravone]
[1]; [3]
  Cholesterol-free media + simvastatin (0.04 μM): 1.019
[1]; [4]
  Complete Media: 1.02
[1]; [5]
  Difference: 0.00
[2]; [6]
  Difference: −0.18
[2]; [7]
  Cholesterol-free: 1.236
[2]; [8]
  Complete: 1.052

## COc1ccc(C2C(=O)c3ccccc3C2=O)cc1 [Anisindione]
[1]; [9]
  Cholesterol-free media + simvastatin (0.04 μM): 1.296
[1]; [8]
  Complete Media: 1.617
[1]; [10]
  Difference: 0.32
[2]; [11]
  Cholesterol-free: 0.8915
[2]; [12]
  Complete: 1.35
[2]; [13]
  Difference: 0.46

## C#C[C@]1(OC(C)=O)CC[C@H]2[C@@H]3CCC4=CC(=O)CC[C@@H]4[C@H]3CC[C@@]21C [Norethindrone acetate]
[1]; [14]
  Cholesterol-free media + simvastatin (0.04 μM): 1.695
[1]; [15]
  Complete Media: 0.9691
[1]; [16]
  Difference: −0.73
[2]; [6]
  Difference: −0.12
[2]; [7]
  Cholesterol-free: 1.033
[2]; [8]
  Complete: 0.9116

## Cn1nnnc1SCC1=C(C(=O)[O-])N2C(=O)[C@@H](NC(=O)[C@H](O)c3ccccc3)[C@H]2SC1.[Na+] [Cefamandole (sodium)]
[1]; [14]
  Cholesterol-free media + simvastatin (0.04 μM): 2.169
[1]; [15]
  Complete Media: 1.429
[1]; [16]
  Difference: −0.74
[2]; [6]
  Difference: −0.12
[2]; [7]
  Cholesterol-free: 1.243
[2]; [8]
  Complete: 1.12

## Cc1nc(Nc2ncc(C(=O)Nc3c(C)cccc3Cl)s2)cc(N2CCN(CCO)CC2)n1 [Dasatinib (hydrochloride)]
[1]; [3]
  Cholesterol-free media + simvastatin (0.04 μM): 0.2818
[1]; [4]
  Complete Media: 0.268
[1]; [5]
  Difference: −0.01
[2]; [6]
  Difference: −0.10
[2]; [7]
  Cholesterol-free: 0.3831
[2]; [8]
  Complete: 0.2841

## O=C(CCCN1CCC(O)(c2ccc(Cl)cc2)CC1)c1ccc(F)cc1 [Haloperidol]
[1]; [17]
  Cholesterol-free media + simvastatin (0.04 μM): 0.8115
[1]; [18]
  Complete Media: 0.843
[1]; [10]
  Difference: 0.03
[2]; [11]
  Cholesterol-free: 0.4782
[2]; [12]
  Complete: 0.7598
[2]; [13]
  Difference: 0.28

## Bulleyaconitine A
[1]; [19]
  Difference: 0.03
[2]; [20]
  Difference: −0.17
[2]; [7]
  Cholesterol-free: 1.261
[2]; [8]
  Complete: 1.091

## CO/N=C(\C(=O)N[C@@H]1C(=O)N2C(C(=O)OCOC(=O)C(C)(C)C)=C(C)CS[C@H]12)c1csc(N)n1.Cl [Cefetamet pivoxil (hydrochloride)]
[1]; [21]
  Cholesterol-free media + simvastatin (0.04 μM): 1.058
[1]; [22]
  Complete Media: 0.852
[1]; [16]
  Difference: −0.21
[2]; [6]
  Difference: −0.16
[2]; [7]
  Cholesterol-free: 1.076
[2]; [8]
  Complete: 0.9196

## Estradiol (cypionate)
[1]; [9]
  Cholesterol-free media + simvastatin (0.04 μM): 0.9809
[1]; [8]
  Complete Media: 0.8945
[1]; [23]
  Difference: −0.09
[2]; [20]
  Difference: −0.22
[2]; [24]
  Cholesterol-free: 1.127
[2]; NCI-H292 cells, complete media
  Complete: 0.9066

## CC(C)N(CCNC(=O)CN1CCCC1=O)C(C)C [Pramiracetam]
[1]; NCI-H292 cells, cholesterol-free media with simvastatin 0.04 μM, […]
  Cholesterol-free media + simvastatin (0.04 μM): 0.8266
[1]; NCI-H292 cells, complete media, […]
  Complete Media: 0.938
[1]; [19]
  Difference: 0.11
[2]; [20]
  Difference: −0.05
[2]; [11]
  Cholesterol-free: 1.059
[2]; [12]
  Complete: 1.007

## CN(C)CCCN1c2ccccc2Sc2ccc(C(F)(F)F)cc21 [Triflupromazine (hydrochloride)]
[1]
  Cholesterol-free media + simvastatin (0.04 μM): 0.02542
  Complete Media: 1.475
  Difference: 1.45
[2]
  Cholesterol-free: 0.9938
  Complete: 0.8066
  Difference: −0.19

## Nc1ccn([C@@H]2O[C@H](CO)[C@@H](O)[C@H]2O)c(=O)n1 [Cytidine]
[1]; [21]
  Cholesterol-free media + simvastatin (0.04 μM): 1.411
[1]; [22]
  Complete Media: 1.221
[1]; [16]
  Difference: −0.19
[2]; [25]
  Difference: −0.23
[2]; [24]
  Cholesterol-free: 1.318
[2]; NCI-H292 cells, complete media
  Complete: 1.09

## CC(=C(CCOC(=O)C(C)C)SSC(CCOC(=O)C(C)C)=C(C)N(C=O)Cc1cnc(C)nc1N)N(C=O)Cc1cnc(C)nc1N (stereo in doubt) [Sulbutiamine]
[1]; [17]
  Cholesterol-free media + simvastatin (0.04 μM): 0.8359
[1]; [18]
  Complete Media: 0.9183
[1]; [10]
  Difference: 0.08
[2]; [11]
  Cholesterol-free: 1.257
[2]; [12]
  Complete: 1.438
[2]; [13]
  Difference: 0.18

## Cl.NCCCC[C@H](N)C(=O)O [L-Lysine hydrochloride]
[1]; [9]
  Cholesterol-free media + simvastatin (0.04 μM): 1.192
[1]; [8]
  Complete Media: 1.079
[1]; [23]
  Difference: −0.11
[2]; [20]
  Difference: −0.25
[2]; [24]
  Cholesterol-free: 1.006
[2]; NCI-H292 cells, complete media
  Complete: 0.7519

## CN1[C@@H]2CC[C@H]1C[C@@H](OC(=O)C(CO)c1ccccc1)C2 (some centres unmarked) [Atropine (sulfate monohydrate)]
[1]
  Cholesterol-free media + simvastatin (0.04 μM): 0.6465
  Complete Media: 0.6938
  Difference: 0.05
[2]
  Complete: 1.139
  Difference: 0.08

## CS(=O)(=O)c1ccc(C(=O)Nc2ccc(Cl)c(-c3ccccn3)c2)c(Cl)c1 [Vismodegib]
[1]; [3]
  Cholesterol-free media + simvastatin (0.04 μM): 1.089
[1]; [4]
  Complete Media: 1.052
[1]; [5]
  Difference: −0.04
[2]; [25]
  Difference: −0.05
[2]; [11]
  Cholesterol-free: 1.219

## COC(=O)CCC(=O)CN [Methyl aminolevulinate (hydrochloride)]
[1]; [9]
  Cholesterol-free media + simvastatin (0.04 μM): 1.272
[1]; [8]
  Complete Media: 1.627
[1]; [10]
  Difference: 0.35
[2]; [26]
  Difference: −0.59
[2]; [27]
  Cholesterol-free: 1.473
[2]; [28]
  Complete: 0.886

## CCCC(=O)OCOC(=O)C1=C(C)NC(C)=C(C(=O)OC)C1c1cccc(Cl)c1Cl (centres unmarked) [Clevidipine]
[1]; [17]
  Cholesterol-free media + simvastatin (0.04 μM): 0.8061
[1]; [18]
  Complete Media: 0.9036
[1]; [10]
  Difference: 0.10
[2]; [24]
  Cholesterol-free: 1.292
[2]; NCI-H292 cells, complete media
  Complete: 0.9289
[2]; complete vs cholesterol-free media, greater than 0 enhanced anti-cancer activity, about 0 neutral, below 0 antagonists
  Difference: −0.36

## O=S(=O)(c1cccc2cnccc12)N1CCCNCC1 [Fasudil (Hydrochloride)]
[1]; [9]
  Cholesterol-free media + simvastatin (0.04 μM): 0.9921
[1]; [8]
  Complete Media: 1.233
[1]; [10]
  Difference: 0.24
[2]; [6]
  Difference: −0.12
[2]; [7]
  Cholesterol-free: 1.121
[2]; [8]
  Complete: 1

## COS(=O)(=O)[O-].C[n+]1c2ccccc2nc2ccccc21 [Phenazine (methylsulfate)]
[1]; [3]
  Cholesterol-free media + simvastatin (0.04 μM): 0.07249
[1]; [4]
  Complete Media: 0.06209
[1]; [5]
  Difference: −0.01
[2]; [25]
  Difference: −0.01
[2]; [11]
  Cholesterol-free: 0.03605
[2]; [12]
  Complete: 0.02161

## CCCC(=O)Nc1ccc(OCC(O)CNC(C)C)c(C(C)=O)c1 (centres unmarked) [Acebutolol (hydrochloride)]
[1]; [9]
  Cholesterol-free media + simvastatin (0.04 μM): 1.195
[1]; [8]
  Complete Media: 1.105
[1]; [16]
  Difference: −0.09
[2]; [26]
  Difference: −0.56
[2]; [27]
  Cholesterol-free: 1.541
[2]; [28]
  Complete: 0.9763

## NNC(=O)c1ccncc1 [Isoniazid]
[1]; [9]
  Cholesterol-free media + simvastatin (0.04 μM): 1.455
[1]; [8]
  Complete Media: 1.672
[1]; [10]
  Difference: 0.22
[2]; [11]
  Cholesterol-free: 0.6633
[2]; [12]
  Complete: 1.357
[2]; [13]
  Difference: 0.69

## N#Cc1ccc(Oc2ccc3c(c2)COB3O)cc1 [Crisaborole]
[1]; [14]
  Cholesterol-free media + simvastatin (0.04 μM): 1.417
[1]; [15]
  Complete Media: 0.9479
[1]; [16]
  Difference: −0.47
[2]; [6]
  Difference: −0.14
[2]; [7]
  Cholesterol-free: 1.199
[2]; [8]
  Complete: 1.059
